In PubChem BioAssay AID1259407 (Chemical Carcinogenesis Research Information System (CCRIS), 2018) one finds mutagenic call data, which are given here for 8 compounds.

The data set concerns CCRIS mutagenicity, Ames/micronucleus/aberration tests. Briefly: CCRIS mutagenicity studies.
[1] abbreviates: Test System: AMES SALMONELLA TYPHIMURIUM, Strain/Indicator: TA98, Metabolic Activation: NONE, Method: STANDARD PLATE.
[2] abbreviates: Test System: AMES SALMONELLA TYPHIMURIUM, Strain/Indicator: TA100, Metabolic Activation: NONE, Method: STANDARD PLATE.
[3] abbreviates: Test System: AMES SALMONELLA TYPHIMURIUM, Strain/Indicator: TA100, Metabolic Activation: RAT, LIVER, S-9, AROCLOR 1254, Method: STANDARD PLATE.

Activity calls are given as the source filed them. How the calls were made is not given here.

Regarding `O=C(Br)CBr`, the mutagenic call is, setting by setting: (End Point: IN VITRO CHROMOSOMAL ABERRATIONS, Test System: CHL CELLS, Metabolic Activation: RAT, LIVER, S-9, SODIUM PHENOBARBITAL AND 5,6-BENZOFLAVONE) “inactive; negative; authors report equivocal results for structural changes at 0.02 mg/ml”; (Test System: AMES SALMONELLA TYPHIMURIUM, Strain/Indicator: TA98, Metabolic Activation: NONE, Method: PREINCUBATION) “inactive; negative”; (Test System: AMES SALMONELLA TYPHIMURIUM, Strain/Indicator: TA98, Metabolic Activation: RAT, LIVER, S-9, PHENOBARBITAL AND BETA-NAPHTHOFLAVONE, Method: PREINCUBATION) “inactive; negative”; (Test System: AMES SALMONELLA TYPHIMURIUM, Strain/Indicator: TA100, Metabolic Activation: NONE, Method: PREINCUBATION) “inactive; negative”; (Test System: AMES SALMONELLA TYPHIMURIUM, Strain/Indicator: TA100, Metabolic Activation: RAT, LIVER, S-9, PHENOBARBITAL AND BETA-NAPHTHOFLAVONE, Method: PREINCUBATION) “inactive; negative”; (Test System: AMES SALMONELLA TYPHIMURIUM, Strain/Indicator: TA102, Metabolic Activation: NONE, Method: PREINCUBATION) “inactive; negative”. In addition, the mutagenic call is “inactive; negative” (Test System: AMES SALMONELLA TYPHIMURIUM, Strain/Indicator: TA102, Metabolic Activation: RAT, LIVER, S-9, PHENOBARBITAL AND BETA-NAPHTHOFLAVONE, Method: PREINCUBATION); “active; positive” (Test System: AMES SALMONELLA TYPHIMURIUM, Strain/Indicator: TA104, Metabolic Activation: NONE, Method: PREINCUBATION); “active; positive” (Test System: AMES SALMONELLA TYPHIMURIUM, Strain/Indicator: TA104, Metabolic Activation: RAT, LIVER, S-9, PHENOBARBITAL AND BETA-NAPHTHOFLAVONE, Method: PREINCUBATION); “inactive; negative” (Test System: AMES SALMONELLA TYPHIMURIUM, Strain/Indicator: TA1535, Metabolic Activation: NONE, Method: PREINCUBATION); “inactive; negative” (Test System: AMES SALMONELLA TYPHIMURIUM, Strain/Indicator: TA1535, Metabolic Activation: RAT, LIVER, S-9, PHENOBARBITAL AND BETA-NAPHTHOFLAVONE, Method: PREINCUBATION); “inactive; negative” (Test System: AMES SALMONELLA TYPHIMURIUM, Strain/Indicator: TA1537, Metabolic Activation: NONE, Method: PREINCUBATION). Also, the mutagenic call was “inactive; negative” (Test System: AMES SALMONELLA TYPHIMURIUM, Strain/Indicator: TA1537, Metabolic Activation: RAT, LIVER, S-9, PHENOBARBITAL AND BETA-NAPHTHOFLAVONE, Method: PREINCUBATION); “active; positive” (Test System: E. COLI, Strain/Indicator: WP2UVRA/PKM101, Metabolic Activation: RAT, LIVER, S-9, PHENOBARBITAL AND BETA-NAPHTHOFLAVONE, Method: PREINCUBATION); “inactive; negative” (Test System: E. COLI, Strain/Indicator: WP2UVRA, Metabolic Activation: NONE, Method: PREINCUBATION); “inactive; negative” (Test System: E. COLI, Strain/Indicator: WP2UVRA, Metabolic Activation: RAT, LIVER, S-9, PHENOBARBITAL AND BETA-NAPHTHOFLAVONE, Method: PREINCUBATION).

As to `O=C(C(Cl)Cl)C(Cl)Cl`, the mutagenic call is “active; positive” under setting [1] and “active; positive” under setting [2].

In the case of `Cc1ncc([N+](=O)[O-])n1CC(=O)O`, the mutagenic call by setting is: under setting [2], “active; positive”; under setting [3], “inactive; negative”.

As for `[N-]=[N+]=NC[C@H]1O[C@H](O)[C@H](O)[C@@H](O)[C@@H]1O`, the mutagenic call was “inactive; negative” under setting [1] and “active; positive” under setting [2].

For the compound `Nc1cc([N+](=O)[O-])cc([N+](=O)[O-])c1CO`, the mutagenic call (End Point: In vitro chromosomal aberrations, Test System: V79 Chinese hamster fibroblasts, Metabolic Activation: None) was “inactive; negative”; the mutagenic call (Test System: Ames Salmonella typhimurium, Strain/Indicator: TA98, Metabolic Activation: None, Method: Standard plate) was “active; positive”; the mutagenic call (Test System: Ames Salmonella typhimurium, Strain/Indicator: TA98, Metabolic Activation: Rat, Liver, S-9, Method: Standard plate) was “active; positive”; the mutagenic call (Test System: Ames Salmonella typhimurium, Strain/Indicator: TA98NR, Metabolic Activation: None, Method: Standard plate) was “active; positive”; the mutagenic call (Test System: Ames Salmonella typhimurium, Strain/Indicator: TA100, Metabolic Activation: None, Method: Standard plate) was “active; positive”; the mutagenic call (Test System: Ames Salmonella typhimurium, Strain/Indicator: TA100, Metabolic Activation: Rat, Liver, S-9, Method: Standard plate) was “active; positive”.

Take `ClC(COCC(Cl)C(Cl)(Cl)Cl)C(Cl)(Cl)Cl` (stereo not given): the mutagenic call is “inactive; negative” (Test System: AMES SALMONELLA TYPHIMURIUM, Strain/Indicator: TA98, Metabolic Activation: NONE, Method: MICROSUSPENSION); “inactive; negative” (Test System: AMES SALMONELLA TYPHIMURIUM, Strain/Indicator: TA98, Metabolic Activation: S-9, Method: MICROSUSPENSION); “active; positive” (Test System: AMES SALMONELLA TYPHIMURIUM, Strain/Indicator: TA100, Metabolic Activation: NONE, Method: MICROSUSPENSION); “inactive; negative” (Test System: AMES SALMONELLA TYPHIMURIUM, Strain/Indicator: TA100, Metabolic Activation: S-9, Method: MICROSUSPENSION).

Consider `Clc1cc(Cl)nc(Cl)n1`, for which the mutagenic call reads like this: (Test System: AMES SALMONELLA TYPHIMURIUM, Strain/Indicator: TA98, Metabolic Activation: HAMSTER, LIVER, S-9, AROCLOR 1254, Method: STANDARD PLATE) “inactive; negative”; under setting [1], “inactive; negative”; (Test System: AMES SALMONELLA TYPHIMURIUM, Strain/Indicator: TA98, Metabolic Activation: RAT, LIVER, S-9, AROCLOR 1254, Method: STANDARD PLATE) “inactive; negative”; (Test System: AMES SALMONELLA TYPHIMURIUM, Strain/Indicator: TA100, Metabolic Activation: HAMSTER, LIVER, S-9, AROCLOR 1254, Method: STANDARD PLATE) “inactive; negative”; under setting [2], “inactive; negative”; under setting [3], “inactive; negative”. Also, the mutagenic call by setting is: (Test System: AMES SALMONELLA TYPHIMURIUM, Strain/Indicator: TA1535, Metabolic Activation: HAMSTER, LIVER, S-9, AROCLOR 1254, Method: STANDARD PLATE) “inactive; negative”; (Test System: AMES SALMONELLA TYPHIMURIUM, Strain/Indicator: TA1535, Metabolic Activation: NONE, Method: STANDARD PLATE) “inactive; negative”; (Test System: AMES SALMONELLA TYPHIMURIUM, Strain/Indicator: TA1535, Metabolic Activation: RAT, LIVER, S-9, AROCLOR 1254, Method: STANDARD PLATE) “inactive; negative”; (Test System: AMES SALMONELLA TYPHIMURIUM, Strain/Indicator: TA1537, Metabolic Activation: HAMSTER, LIVER, S-9, AROCLOR 1254, Method: STANDARD PLATE) “inactive; negative”; (Test System: AMES SALMONELLA TYPHIMURIUM, Strain/Indicator: TA1537, Metabolic Activation: NONE, Method: STANDARD PLATE) “inactive; negative”; (Test System: AMES SALMONELLA TYPHIMURIUM, Strain/Indicator: TA1537, Metabolic Activation: RAT, LIVER, S-9, AROCLOR 1254, Method: STANDARD PLATE) “inactive; negative”. For the same compound, the mutagenic call was “inactive; negative” (Test System: AMES SALMONELLA TYPHIMURIUM, Strain/Indicator: TA1538, Metabolic Activation: HAMSTER, LIVER, S-9, AROCLOR 1254, Method: STANDARD PLATE); “inactive; negative” (Test System: AMES SALMONELLA TYPHIMURIUM, Strain/Indicator: TA1538, Metabolic Activation: NONE, Method: STANDARD PLATE); “inactive; negative” (Test System: AMES SALMONELLA TYPHIMURIUM, Strain/Indicator: TA1538, Metabolic Activation: RAT, LIVER, S-9, AROCLOR 1254, Method: STANDARD PLATE); “active; inconclusive (previous evaluation positive)” (Test System: Mouse lymphoma, Strain/Indicator: L5178Y (tk+/tk-), Metabolic Activation: None, Method: Suspension/plate); “active; positive” (Test System: Mouse lymphoma, Strain/Indicator: L5178Y (tk+/tk-), Metabolic Activation: Rat, Liver, S-9, Aroclor 1254, Method: Suspension/plate).

Turning to `COc1ccc2c(c1)c(CC(=O)OC(C)c1ccccc1)c(C)n2C(=O)c1ccc(Cl)cc1` (stereo not given), the mutagenic call (End Point: IN VITRO MICRONUCLEUS, Test System: CHL/IU CELLS, Metabolic Activation: NONE) was “active; positive”.
